Source: PubChem BioAssay (NCI)
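Protocol summary: plate cells (96-well), add compound at 5 concentrations, incubate 48 h, interpolate endpoints linearly. At the GI50, growth is halved. TGI is the concentration that stops growth completely.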

Assays:
Assay in all cases: inhibition of tumour cell growth, NCI panel, 48 h
OVCAR-4 ovarian = test system: OVCAR-4 ovarian
EKVX NSCLC = test system: EKVX NSCLC
OVCAR-8 ovarian = test system: OVCAR-8 ovarian
HCT-15 colon = test system: HCT-15 colon
SK-MEL-5 melanoma = test system: SK-MEL-5 melanoma
786-0 renal = test system: 786-0 renal
SF-539 CNS = test system: SF-539 CNS
SNB-75 CNS = test system: SNB-75 CNS
PC-3 prostate = test system: PC-3 prostate
MDA-MB-435 = test system: MDA-MB-435

SMILES	TGI (OVCAR-4 ovarian) [µM]	TGI (EKVX NSCLC) [µM]	TGI (OVCAR-8 ovarian) [µM]	TGI (HCT-15 colon) [µM]	TGI (SK-MEL-5 melanoma) [µM]	TGI (786-0 renal) [µM]	TGI (SF-539 CNS) [µM]	TGI (SNB-75 CNS) [µM]	GI50 (PC-3 prostate) [µM]	TGI (PC-3 prostate) [µM]	GI50 (EKVX NSCLC) [µM]	GI50 (OVCAR-8 ovarian) [µM]	GI50 (MDA-MB-435) [µM]	TGI (MDA-MB-435) [µM]	GI50 (HCT-15 colon) [µM]	GI50 (SK-MEL-5 melanoma) [µM]	GI50 (786-0 renal) [µM]	GI50 (SF-539 CNS) [µM]	GI50 (OVCAR-4 ovarian) [µM]	GI50 (SNB-75 CNS) [µM]
O=C1C(c2ccccc2)=C(c2ccccc2)C(c2ccc(CCCCCCc3ccc(C4=C(c5ccccc5)C(=O)C(c5ccccc5)=C4c4ccccc4)cc3)cc2)=C1c1ccccc1	> 100	> 100	> 100	> 100	> 100	> 100	> 100													
O=c1nc2cc(-c3ccccc3)[nH]c2nn1-c1c(Cl)cc(Cl)cc1Cl		74	95.8	> 100	56.4	> 100	33.5													
COc1ccc(C(=O)C=C2NCCN2)cc1	> 100	> 100	> 100		> 100	> 100	> 100	> 100												
O=[N+]([O-])c1ccc(Cl)c(C2SCc3nc4ccccc4n32)c1 (stereo not given)		> 100	> 100		30.4	> 100	> 100	89.9												
COc1ccc(O)c2c1C(=O)CCCC2=O	> 100	> 100	> 100	> 100	> 100	> 100	> 100													
COc1cc(C2C(C(=O)Nc3ccccc3)=C(C)NC(C)=C2C(=O)Nc2ccccc2)ccc1O	> 100	> 100	85.1	> 100		> 100	52.9	> 100												
CN(O)C(=O)Cc1ccccc1	> 100		> 100		> 100	> 100	> 100	> 100												
CCc1cccc(C)c1NC(=O)NS(=O)(=O)c1ccc(C)cc1	> 100	> 100	> 100	> 100	> 100	> 100	> 100	> 100												
COc1ccc(NC(=O)C(=O)C2NC(=S)NC2=O)c(OC)c1 (stereo not given)	> 100	> 100	> 100	> 100		> 100	> 100	> 100												
Cn1c(=O)c2[nH]c(COc3ccc(C(C)(C)C)cc3)nc2n(C)c1=O		> 100	67.1	> 100	20.6	> 100	> 100		6.11	53.3	3.34	18.3	4.09	35.4	19.9	4.68	19.5	36.7		
Cc1cc(C)nc(NS(=O)(=O)c2ccc(NC(=O)c3cccc4cc5ccccc5nc34)cc2)n1	> 100	> 100	> 100	58.5	> 100	> 100	34	> 100												
COC(=O)C1=C(C(=O)OC)C2(C(=O)OC)OC1(OC)C(C1(C(=O)OC)C(C(=O)OC)=C1C(=O)OC)=C2C(=O)OC (stereo not given)		> 100	> 100	> 100	> 100	> 100	> 100	> 100												
FC(F)(F)c1ccc(-c2cnc(Br)nc2NC2CCCCCC2)cc1	> 100		> 100	> 100	> 100	> 100	> 100	> 100	35.4	> 100		> 100	> 100	> 100	55.2	29.1	91.2	> 100	26	> 100
